Assay results taken from patent US9826740B2, “Synergistic fungicidal compositions and methods of use” (ZELAM LIMITED, priority 2010, dated 2017).
Like-named read-outs stand apart in the source and are kept apart here.

Experiments:
[1] = tested on: human and yeast CYP51 (lanosterol-14α-demethylase); conditions: cited from earlier work
[2] = pH 4; cited from earlier work
[3] = tested on: Poria placenta (Brown rot); assay: Malt extract agar plate growth inhibition; assay type: cell-based; conditions: Example 5, 5 days growth
Method: (§1) The end points used were EC90 or EC50, the concentration producing 90% or 50% inhibition of growth or weight loss resulting from fungal growth. EC values were calculated by regression analysis of dose response data using the GraphPad Prism software package (GraphPad Software, Inc., 5755 Oberlin Drive #110, San Diego, Calif. 92121, USA). EC90 values are expressed in ppm and EC50 values are expressed in gai/m^3. […]
(§2) Further EC90 values were determined for this example in a standard manner.

[4] = tested on: Pycnoporus coccineus (White rot); assay: Malt extract agar plate growth inhibition; assay type: cell-based; conditions: Example 5, 4 days growth
Method: as §1, §2

[5] = tested on: Tyromyces palustris (Brown rot); assay: Malt extract agar plate growth inhibition; assay type: cell-based; conditions: Example 5, 4 days growth
Method: as §1, §2

[6] = tested on: Serpula lacrymans (Dry rot); assay: Malt extract agar plate growth inhibition; assay type: cell-based; conditions: Example 5, 5 days growth
Method: as §1, §2

[7] = tested on: Gloeophyllum abietinum (Brown rot); assay: Malt extract agar plate growth inhibition; assay type: cell-based; conditions: Example 5, 7 days growth
Method: as §1, §2

[8] = tested on: Antrodia xantha (Brown rot); assay: Malt extract agar plate growth inhibition; assay type: cell-based; conditions: Example 4, 5 days at 25° C.
Method: as §1

Decay fungi = assay: Malt extract agar plate growth test, statements over all decay fungi tested; assay type: cell-based; conditions: Example 4, EC90, Antrodia xantha, Fomitopsis lilacino-gilva, Trametes versicolor
Method: (§3) The end points used were EC90 or EC50, the concentration producing 90% or 50% inhibition of growth or weight loss resulting from fungal growth. EC values were calculated by regression analysis of dose response data using the GraphPad Prism software package (GraphPad Software, Inc., 5755 Oberlin Drive #110, San Diego, Calif. 92121, USA). EC90 values are expressed in ppm and EC50 values are expressed in gai/m^3.
(§4) Decay fungi were grown on malt extract agar plates for 5 days at 25° C. in the presence of triadimefon alone or triadimenol alone (A), cyproconazole alone (B), and the pairs of mixtures shown in Table 2.
as §2

Antrodia xantha = assay: Rot jar test of glueline treated Pinus radiata plywood (AWPC 2007); conditions: rot jar after leaching
Method: as §3
(§5) Efficacy as a glueline fungicide was tested in plywood manufactured with phenol formaldehyde (PF), a typical resin used in engineered wood products. The wood type was Pinus radiata sapwood, which, like many softwoods, is rapidly degraded by decay organisms, if not protected. Five 3.2 mm rotary-peeled veneers were laid up with fungicide-containing PF resin at a typical commercial glue spread rate (250 g/m^2), cold pressed for 10 minutes then hot pressed for 12 minutes at 135° C. and […]. Test specimens (25 mm×25 mm×16 mm) were cut, then leached for 14 days according to EN 84 before conducting a three month “rot jar test” as specified by the Australasian Wood Preservation Committee (Laboratory Decay Test for Hazard Classes H3, H4 and H5, AWPC, 2007). Untreated controls contained no fungicide.
(§6) Plywood was manufactured following the procedure in Example 7 using triadimefon and triadimenol as the glueline fungicides and tested by the rot jar method after leaching.
(§7) In order to examine the interaction between triadimefon and cyproconazole in the glueline a synergy trial was performed using plywood manufactured with fungicide-supplemented PF resin and the rot jar method described above. Six glueline rates (expressed as gai/m^3) of triadimefon alone, cyproconazole alone, triadimefon+cyproconazole (10:1) and triadimefon+cyproconazole (6:1) were used to establish EC50 values by regression analysis. Synergy was determined by the Wadley method as described above using the EC50 values.
(§8) Plywood 29 mm thick was manufactured from seven 4.3 mm rotary peeled Pinus radiata sapwood veneers using PF resin supplemented with various rates of triadimefon plus cyproconazole at a 10:1 ratio. […] The finished plywood was then sprayed with the same mixtures to cover the top and bottom faces of the plywood. Test specimens (25 mm×25 mm×29 mm) were cut, leached and tested by the rot jar method as described in Example 7.

[9] = tested on: Fomitopsis lilacino-gilva; assay: as above; conditions: rot jar after leaching
Method: as §3, §5, §6, §7, §8

Coriolus versicolor = conditions: cited from earlier work
Tyromyces palustris = assay: Rot jar test of glueline treated Pinus radiata plywood (AWPC 2007); conditions: rot jar after leaching
Method: as §5
Plywood was manufactured following the procedure in Example 7 using triadimefon and triadimenol as the glueline fungicides and tested by the rot jar method after leaching. […]

[10] = cited from earlier work
Trichoderma viride = conditions: cited from earlier work
Chondrostereum purpureum = conditions: cited from earlier work
[11] = tested on: Fomitopsis lilacino-gilva (Brown rot); assay: Malt extract agar plate growth inhibition; assay type: cell-based; conditions: Example 4, 5 days at 25° C.
Method: as §3, §4

[12] = tested on: Trametes versicolor (White rot); assay: Malt extract agar plate growth inhibition; assay type: cell-based; conditions: Example 4, 5 days at 25° C.
Method: as §3, §4

[13] = Example 8, glueline 250 gai/m3, PF plywood
[14] = Example 8, glueline 500 gai/m3, PF plywood
[15] = Example 8, glueline 1000 gai/m3, PF plywood
[16] = Example 8, glueline 2000 gai/m3, PF plywood

CC(C)(C)C(O)C(Oc1ccc(Cl)cc1)n1cncn1 (centres unmarked) [Triadimenol]
relative selectivity for the fungal enzyme (in words) ([1]; based on the IC50 ratio human/yeast): moderately selective
ratio of IC50 values (human/yeast) against CYP51 ([1]; human CYP51 IC50 / yeast (Candida albicans) CYP51 IC50): 113
Stability, hydrolysis DT50 [2]: DT50 >1 y pH 4,7,9
EC90(obs) [3]: 0.84 ppm
EC90(obs) [4]: 0.10 ppm
EC90(obs) [5]: 1.26 ppm
EC90(obs) [6]: 42.8 ppm
EC90(obs) [7]: 1.80 ppm
EC90(obs) [8]: 1.12 ppm
efficacy acting alone relative to triadimefon acting alone (Decay fungi): two to ten times more efficacious
Percentage weight loss (Antrodia xantha; [13]): 24.7%
Percentage weight loss (Antrodia xantha; [14]): 18.4%
Percentage weight loss (Antrodia xantha; [15]): 11.2%
Percentage weight loss (Antrodia xantha; [16]): 1.0%
Percentage weight loss [9, 13]: 9.0%
Percentage weight loss [9, 14]: 5.1%
Percentage weight loss [9, 15]: 1.6%
Percentage weight loss [9, 16]: 0.9%
sensitivity of the fungus (in words) (Coriolus versicolor): sensitive
Percentage weight loss (Tyromyces palustris; [13]): 9.6%
Percentage weight loss (Tyromyces palustris; [14]): 6.5%
Percentage weight loss (Tyromyces palustris; [15]): 0.9%
Percentage weight loss (Tyromyces palustris; [16]): 0.3%
Henry ([10]; triadimenol form A): 3 × 10^−6 P m^3 mo1^−1
Henry ([10]; triadimenol form B): 4 × 10^−6 P m^3 mo1^−1
sensitivity of the fungus (in words) (Trichoderma viride): insensitive
sensitivity of the fungus (in words) (Chondrostereum purpureum): sensitive
EC90(obs) [11]: 0.37 ppm
EC90(obs) [12]: 0.15 ppm
